One series concerns the target T1, CYP2D6 (Homo sapiens, UniProt P10635).
T1 construct: endogenous in cells; host or cells: primary human hepatocytes (PHH)
Put plainly: Measurement of CYP activity using CYP substrates in PHH (BUF to 1OH-BUF). As to conditions: 10 μM BUF. It is filed as in vitro ADME. The procedure: (§1) The LC-MS/MS analysis was carried out to measure the activity of CYP. Prior to a CYP substrate treatment, PHH was cultured in DMEM containing 10 mM HEPES for 30 minutes. Subsequently, the PHH was cultured in a culture medium containing 5 μM MDZ (the metabolite thereof is 1OH-MDZ), 50 μM MPHT (the metabolite thereof is 4OH-MPHT), 5 μM DIC (the metabolite thereof is 4OH-DIC), 10 μM BUF (the metabolite thereof is 1OH-BUF), or 50 μM PHE (the metabolite thereof is APAP). The supernatant was recovered 1, 2, and 4 hours after the treatment with the substrate. At the time of recovering the supernatant, an equal amount of a culture medium containing the substrate was added.
(§2) The recovered supernatant was mixed with acetonitrile (FUJIFILM Wako Pure Chemical Corporation) containing an equal volume of 5 μM propranolol (internal standard). The specimen was filtered through a Cosmonice Filter W (Nacalai Tesque, Inc.) having a pore size of 0.45 μm, the supernatant was subsequently analyzed by LC-MS/MS, and the concentration of the metabolite was measured based on the standard curve. […]
(§3) Subsequently, the drug metabolic activities of the PHH cultured in the PDMS device and the PS plate were compared. […] Subsequently, after 1, 2, and 4 hours, the amounts of the metabolites (OH-MDZ, 4OH-DIC, APAP, 1OH-BUF, and 4OH-MPHT) generated in the culture medium were measured by LC-MS/MS.

A short description of series [1]: Drug absorption in microfluidic device without PHH (LC-MS/MS). It is filed as physicochemical. Particulars: for Drug absorption rate: Microfluidic device/Polystyrene plate, without PHH. Here is the method:
A culture medium containing MDZ, DIC, PHE, BUF, or MPHT was added to a microfluidic device or a polystyrene plate. Subsequently, 1, 2, and 4 hours after the addition of the drugs, the amounts of these drugs were quantified with LC-MS/MS.
A culture medium containing APAP (a CYP1A2 metabolite), 1OH-MDZ (a CYP3A4 metabolite), 4OH-DIC (a CYP2C9 metabolite), 4OH-MPHT (a CYP2C19 metabolite), or 1OH-BUF (a CYP2D6 metabolite) was added to a microfluidic device or a polystyrene plate. Subsequently, 1, 2, and 4 hours after the addition of the drugs, the amounts of these drugs were quantified with LC-MS/MS.
Subsequently, it was examined whether the absorption of the drugs and metabolites could be predicted by the relative physicochemical characteristics between the microfluidic device and the polystyrene plate. The drug absorption rate between the microfluidic device and the polystyrene plate was calculated. Subsequently, a correlation coefficient R^2 value between the drug absorption rate and the physicochemical characteristics (DiffCoef, M Log P, S+Log P, S+log D, MWt, and tPSA) of the drugs was calculated.

The target of a further series is T2, CYP2C9 (Homo sapiens, UniProt P11712).
T2 construct: endogenous in cells; host or cells: primary human hepatocytes (PHH)
T2 sequence (P11712 whole entry): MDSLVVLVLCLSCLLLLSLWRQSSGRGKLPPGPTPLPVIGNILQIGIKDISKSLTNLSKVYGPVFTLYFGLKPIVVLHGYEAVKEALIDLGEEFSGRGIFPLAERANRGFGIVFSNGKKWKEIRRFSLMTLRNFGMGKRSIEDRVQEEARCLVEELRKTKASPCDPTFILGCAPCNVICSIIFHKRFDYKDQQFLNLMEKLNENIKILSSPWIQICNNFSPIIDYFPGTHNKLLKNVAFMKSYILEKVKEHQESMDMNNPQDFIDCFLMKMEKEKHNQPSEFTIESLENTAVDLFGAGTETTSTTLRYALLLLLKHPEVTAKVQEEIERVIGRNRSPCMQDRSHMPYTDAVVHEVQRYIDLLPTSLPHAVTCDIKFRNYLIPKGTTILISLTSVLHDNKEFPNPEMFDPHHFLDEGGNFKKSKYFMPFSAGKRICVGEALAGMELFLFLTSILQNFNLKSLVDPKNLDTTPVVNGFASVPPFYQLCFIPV
Put plainly: Measurement of CYP activity using CYP substrates in PHH (DIC to 4OH-DIC). Particulars: 5 μM DIC. Type of series: in vitro ADME. Here is the method:
as §1, §2, §3

The target of another series is T3, CYP2C19 (Homo sapiens, UniProt P33261).
T3 construct: endogenous in cells; host or cells: primary human hepatocytes (PHH)
T3 sequence (P33261 whole entry): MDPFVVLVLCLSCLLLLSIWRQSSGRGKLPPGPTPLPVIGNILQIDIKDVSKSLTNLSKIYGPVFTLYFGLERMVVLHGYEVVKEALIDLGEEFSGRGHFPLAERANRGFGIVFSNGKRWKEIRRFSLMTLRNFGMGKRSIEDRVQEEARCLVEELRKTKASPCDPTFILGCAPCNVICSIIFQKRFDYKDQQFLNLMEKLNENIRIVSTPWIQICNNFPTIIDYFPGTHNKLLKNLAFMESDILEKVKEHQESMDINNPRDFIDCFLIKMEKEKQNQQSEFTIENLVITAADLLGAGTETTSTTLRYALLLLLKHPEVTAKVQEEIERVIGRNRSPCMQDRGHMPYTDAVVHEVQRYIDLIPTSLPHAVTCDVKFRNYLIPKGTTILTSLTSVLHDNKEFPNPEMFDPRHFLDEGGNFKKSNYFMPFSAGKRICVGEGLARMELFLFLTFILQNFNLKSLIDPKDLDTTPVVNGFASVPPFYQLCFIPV
Put plainly: Measurement of CYP activity using CYP substrates in PHH (MPHT to 4OH-MPHT). It is filed as in vitro ADME. Particulars: 50 μM MPHT. The procedure:
as §1, §2, §3

Another series has as its system PHH. Nature of the series: Acetaminophen-induced cytotoxicity, WST-8 assay. Type of series: cell-based, human. As to conditions: 10 mM acetaminophen, 4 days. The procedure:
(§4) PHH was exposed to 10 mM APAP (FUJIFILM Wako Pure Chemical Corporation) for 4 days. Cell viability was measured according to a WST-8 assay. The WST-8 assay was carried out using a Cell Counting Kit-8 (Dojindo Molecular Technologies. Inc.) according to the instruction manual. The cell viability was calculated as a percentage with respect to cells not subjected to a drug treatment.
(§5) The drug responsiveness of the PHH cultured in the microfluidic device and the polystyrene plate was evaluated. PHH was treated with acetaminophen (APAP), which is known to cause drug-induced liver damage at a high concentration, in order to investigate whether or not drug-induced liver damage can be evaluated in PHH cultured in a microfluidic device. PHH was seeded in a microfluidic device or a polystyrene plate and cultured for 24 hours. Subsequently, the PHH was exposed to 10 mM acetaminophen for 4 days. Subsequently, cell viability was measured according to a WST-8 assay.
(§6) Subsequently, the hepatotoxicity of PHH due to acetaminophen was examined. The PHH cultured on the polystyrene plate was exposed to acetaminophen at various concentrations for 4 days. Subsequently, cell viability was measured according to a WST-8 assay. […] The data is indicated as average value±standard deviation (n=3).
In general terms: Tetrazolium dyes change colour on reduction, which living cells bring about.

The nature of series [2]: Acetaminophen-induced cytotoxicity, WST-8 assay. It is filed as cell-based, human. Particulars: human, PHH cultured on the polystyrene plate. The procedure: as §4, §5, §6
The next series has as its system CYP1A2. Nature of the series: Measurement of CYP activity using CYP substrates in PHH (PHE to APAP). It is filed as in vitro ADME, human. Particulars: 50 μM PHE. The procedure: The supernatant was recovered 1, 2, and 4 hours after the treatment with the substrate.
In a further series the test system is CYP2B6. Nature of the series: CYP induction test (quantitative RT-PCR) in PHH. Particulars: 500 μM phenobarbital, 48 hours, versus DMSO. The procedure: PHH was treated with 50 μM omeprazole, 500 μM phenobarbital, or 20 μM rifampicin (all of which are from FUJIFILM Wako Pure Chemical Corporation) for 48 hours. Each of these drugs is known to induce CYP1A2, 2B6, and 3A4. In order to measure the inducibility of CYP1A2, 2B6, and 3A4, the expression level of CYP was measured by quantitative RT-PCR. The expression level of the target gene was standardized with the expression level of GAPDH. The inducibility was calculated as a change in expression level in terms of folds in cells treated with DMSO.
PHH was seeded in each of a microfluidic device and a polystyrene plate and cultured for 24 hours. Subsequently, the cultured PHH was treated with 50 μM omeprazole, 500 μM phenobarbital, or […] rifampicin for 48 hours. […] Subsequently, the expression level of each CYP gene was measured by quantitative RT-PCR. Cells treated with DMSO (final concentration: 0.1%) were used as a control.

We go through five compounds from US20240150691A1, “BILE DUCT CHIP AND USE THEREOF” (Kyoto University, priority 2021, published 2024).

T1 sequence (P10635 whole entry): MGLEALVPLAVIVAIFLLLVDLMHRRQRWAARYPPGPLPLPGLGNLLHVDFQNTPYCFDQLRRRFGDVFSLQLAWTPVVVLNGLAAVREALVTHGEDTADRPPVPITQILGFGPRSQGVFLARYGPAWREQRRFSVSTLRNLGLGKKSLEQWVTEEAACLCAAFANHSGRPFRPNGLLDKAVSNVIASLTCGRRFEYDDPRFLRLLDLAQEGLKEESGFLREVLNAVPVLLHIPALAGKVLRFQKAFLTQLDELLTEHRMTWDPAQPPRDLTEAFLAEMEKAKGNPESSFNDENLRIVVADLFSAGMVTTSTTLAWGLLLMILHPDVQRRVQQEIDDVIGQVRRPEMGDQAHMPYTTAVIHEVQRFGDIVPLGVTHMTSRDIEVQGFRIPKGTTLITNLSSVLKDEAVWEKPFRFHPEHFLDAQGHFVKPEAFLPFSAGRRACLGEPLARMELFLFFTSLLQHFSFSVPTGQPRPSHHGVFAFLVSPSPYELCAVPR

As to `CC(O)c1cccc2cc(C(O)CNC(C)(C)C)oc12` (stereo not drawn) [1-hydroxybufuralol], the “formation rate of metabolite, microfluidic device versus polystyrene plate” value at CYP2D6 was “similar”. The same compound displayed a Drug absorption rate in series [1] of 0.9648. Moreover, the “absorption in the microfluidic device” value in series [1] (PDMS device without PHH) is reported as “not absorbed”.
`O=C(O)Cc1ccccc1Nc1c(Cl)cc(O)cc1Cl` [4-hydroxy diclofenac, 4-hydroxydiclofenac]: the “formation rate of metabolite, microfluidic device versus PS plate” value on CYP2C9 is reported as “significantly lower”. Moreover, in series [1], the Drug absorption rate is on record as 0.725.
Take `CCC1(c2ccc(O)cc2)NC(=O)N(C)C1=O` (stereo not drawn) [4-hydroxymephenytoin]: on CYP2C19, the “formation rate of metabolite, microfluidic device versus PS plate” value was “significantly lower”. In series [1], this compound returned a Drug absorption rate of 0.8633.
Turning to `CC(=O)Nc1ccc(O)cc1` [Acetaminophen, acetaminophen], the “cell viability, microfluidic device versus polystyrene plate” value in the series with PHH is “significantly lower”. The CC50 at 4 days in series [2] was 9.4 mM. Also, the “formation rate of metabolite, microfluidic device versus polystyrene plate” value in the series on CYP1A2 is “similar”. In addition, in series [1], the Drug absorption rate was 0.8987.
On to `CCC1(c2ccccc2)C(=O)NC(=O)NC1=O` [phenobarbital], for which the CYP2B6 expression level result in the series with CYP2B6 was “induced in both the microfluidic device and the polystyrene plate”.

Broadly, the CC50 is the concentration that lowers cell viability or growth by half. Higher therefore signals lower toxicity to the cells.
